Data as given in patent US10849336B2, “Cocoa-based food products” (IP Science Limited, priority 2011, dated 2020).
Several values for one entry are separate records, joined by “and”; a condition that tells them apart may be missing. Equal entries are not always repeated.

Tests used:
cholesterol = conditions: cited from earlier work
CHD patients = test: Clinical trial in CHD patients, daily lycopene, control chocolate or L-chocolate; format: in vivo, human
Procedure: Commercially available dark chocolate (Green & Black's Dark Chocolate; 85% cocoa) was melted at 70° C. The melted chocolate was mixed with tomato oleoresin, containing 15% of lycopene (Lyc-O-Mato), in the ratio of 1.57 mg of oleoresin to 1 g of the chocolate. The mixture was blended for 10 minutes and then divided into daily […] 30 g portions and cooled down to the room temperature.
Each […] 30 g chocolate portion contained 47.1 mg of tomato oleoresin or about 7 mg of lycopene.
The melting and mixing procedures were performed as described above using the same commercially available dark chocolate, but instead of tomato oleoresin, sunflower oil (Floral™) was used.
47.1 mg of tomato oleoresin was pre-dissolved in ethanol and mixed with Whey Protein as described in Richelle et al (2002) J Nutr 132 404-408, WO01/091588 and US2002/01072992. Then the mixture was placed into gelatine capsules.
18 male CHD patients, age 47-69, were recruited for this study.
Main inclusion criteria were: • elevated total serum cholesterol above 200 mg/dL and/or triglycerides above 150 mg/dL, • all patients were naive for any lipid-lowering medications, • stable clinical conditions and regimen of medications was t the last 3 months.
Secondary inclusion criteria were: • positive blood markers on inflammatory oxidative damage, IOD, >20-30 μM MDA • positive blood on an antibody inflammatory marker, Px-IgG>0.250-0.300 U/ml
All patients were randomised and divided into three equal groups of 6 patients each. Two groups receiving chocolate were blinded; the group receiving lycopene preparation along was open labelled. The period of the trial was 4 weeks.

[1] = Baseline, group mean (unlabelled last line)
[2] = Week 1, group mean (unlabelled last line)
[3] = Week 2, group mean (unlabelled last line)
[4] = Week 3, group mean (unlabelled last line)

## CC(C)=CCC/C(C)=C/C=C/C(C)=C/C=C/C(C)=C/C=C/C=C(C)/C=C/C=C(C)/C=C/C=C(\C)CCC=C(C)C [Lycopene]
cholesterol; 13 clinical studies, daily doses 25 mg of lycopene or above
  cholesterol-lowering effect: 7.55 ± 6.15 mg/dL
cholesterol; daily consumption of 6-10 mg
  effect on cholesterol or other blood lipids: no effect on cholesterol or other blood lipids
CHD patients; [1]
  ALT: 29.2 U/L
  AST: 37.3 U/L
  GL: 5.4 mmol/L
  HDL: 40.5 mg/dL
  IOD: 95 μM MDA
  LDL: 157 mg/dL
  Px-IgG: 0.762 U/ml
  TC: 222 mg/dL
  TG: 149 mg/dL
CHD patients; Baseline, individual patient
  ALT: 35 U/L and 29 U/L and 26 U/L and 25 U/L and 36 U/L and 24 U/L
  AST: 27 U/L and 49 U/L and 25 U/L and 44 U/L and 45 U/L and 34 U/L
  GL: 4.4 mmol/L and 5.9 mmol/L and 6.1 mmol/L and 6.5 mmol/L and 5.6 mmol/L and 3.8 mmol/L
  HDL: 44 mg/dL and 37 mg/dL and 40 mg/dL and 39 mg/dL and 42 mg/dL and 41 mg/dL
  IOD: 95 μM MDA and 83 μM MDA and 49 μM MDA and 101 μM MDA and 162 μM MDA and 79 μM MDA
  LDL: 161 mg/dL and 186 mg/dL and 147 mg/dL and 153 mg/dL and 159 mg/dL and 135 mg/dL
  Px-IgG: 0.803 U/ml and 0.751 U/ml and 0.743 U/ml and 0.698 U/ml and 0.811 U/ml
  TC: 219 mg/dL and 243 mg/dL and 210 mg/dL and 225 mg/dL and 231 mg/dL and 204 mg/dL
  TG: 126 mg/dL and 165 mg/dL and 157 mg/dL and 161 mg/dL and 150 mg/dL and 134 mg/dL
CHD patients; [2]
  ALT: 31.5 U/L
  AST: 39.7 U/L
  GL: 5.3 mmol/L
  HDL: 40.3 mg/dL
  IOD: 96 μM MDA
  LDL: 157 mg/dL
  Px-IgG: 0.823 U/ml
  TC: 221 mg/dL
  TG: 150 mg/dL
CHD patients; Week 1, individual patient
  ALT: 31 U/L and 33 U/L (2×) and 29 U/L (2×) and 34 U/L
  AST: 47 U/L and 46 U/L and 36 U/L and 31 U/L and 44 U/L and 34 U/L
  GL: 6.4 mmol/L and 5.7 mmol/L and 4.9 mmol/L and 3.6 mmol/L and 5.1 mmol/L and 6.1 mmol/L
  HDL: 39 mg/dL and 42 mg/dL and 40 mg/dL (2×) and 43 mg/dL and 38 mg/dL
  IOD: 99 μM MDA and 158 μM MDA and 85 μM MDA and 94 μM MDA and 81 μM MDA and 57 μM MDA
  LDL: 153 mg/dL and 160 mg/dL (2×) and 134 mg/dL and 185 mg/dL and 149 mg/dL
  Px-IgG: 0.823 U/ml and 0.746 U/ml and 0.809 U/ml and 0.867 U/ml and 0.851 U/ml and 0.839 U/ml
  TC: 224 mg/dL and 231 mg/dL and 205 mg/dL and 217 mg/dL and 241 mg/dL and 209 mg/dL
  TG: 160 mg/dL and 152 mg/dL and 137 mg/dL and 130 mg/dL and 164 mg/dL and 159 mg/dL
CHD patients; [3]
  ALT: 30.8 U/L
  AST: 37.5 U/L
  GL: 5.2 mmol/L
  HDL: 40.3 mg/dL
  IOD: 92 μM MDA
  LDL: 156 mg/dL
  Px-IgG: 0.818 U/ml
  TC: 221 mg/dL
  TG: 150 mg/dL
CHD patients; Week 2, individual patient
  ALT: 29 U/L and 31 U/L (2×) and 28 U/L and 32 U/L and 34 U/L
  AST: 43 U/L and 42 U/L and 31 U/L and 38 U/L and 41 U/L and 30 U/L
  GL: 6.6 mmol/L and 5.2 mmol/L and 5.4 mmol/L and 4.1 mmol/L and 3.9 mmol/L and 6 mmol/L
  HDL: 39 mg/dL (2×) and 41 mg/dL (2×) and 40 mg/dL and 42 mg/dL
  IOD: 95 μM MDA and 139 μM MDA and 84 μM MDA and 91 μM MDA and 75 μM MDA and 68 μM MDA
  LDL: 152 mg/dL and 158 mg/dL and 133 mg/dL and 159 mg/dL and 183 mg/dL and 150 mg/dL
  Px-IgG: 0.812 U/ml and 0.809 U/ml and 0.815 U/ml and 0.844 U/ml and 0.830 U/ml and 0.799 U/ml
  TC: 223 mg/dL and 230 mg/dL and 208 mg/dL (2×) and 216 mg/dL and 239 mg/dL
  TG: 159 mg/dL and 151 mg/dL and 138 mg/dL and 132 mg/dL and 162 mg/dL and 158 mg/dL
CHD patients; [4]
  ALT: 29.3 U/L
  AST: 37.8 U/L
  GL: 5.22 mmol/L
  HDL: 40.2 mg/dL
  IOD: 94 μM MDA
  LDL: 154 mg/dL
  Px-IgG: 0.806 U/ml
  TC: 219 mg/dL
  TG: 149 mg/dL
CHD patients; Week 3, individual patient
  ALT: 32 U/L and 29 U/L and 25 U/L and 31 U/L (2×) and 28 U/L
  AST: 42 U/L (2×) and 39 U/L and 35 U/L and 36 U/L and 33 U/L
  GL: 6.2 mmol/L and 4.8 mmol/L and 5.1 mmol/L and 5 mmol/L and 4.4 mmol/L and 5.8 mmol/L
  HDL: 39 mg/dL and 42 mg/dL and 40 mg/dL and 41 mg/dL (2×) and 38 mg/dL
  IOD: 94 μM MDA and 136 μM MDA and 85 μM MDA and 93 μM MDA and 76 μM MDA and 81 μM MDA
  LDL: 151 mg/dL and 157 mg/dL and 132 mg/dL and 155 mg/dL and 179 mg/dL and 152 mg/dL
  Px-IgG: 0.834 U/ml and 0.781 U/ml and 0.84 U/ml and 0.795 U/ml and 0.809 U/ml and 0.774 U/ml
  TC: 221 mg/dL and 227 mg/dL and 210 mg/dL and 214 mg/dL and 232 mg/dL and 211 mg/dL
  TG: 155 mg/dL and 149 mg/dL and 135 mg/dL and 142 mg/dL and 161 mg/dL and 154 mg/dL
CHD patients; after two weeks of administration, 7 mg lycopene or 30 g control bar
  changes in levels of elevated cholesterol, triglycerides and markers of oxidative damage or inflammation: no changes
